# Measurements published in the supplement of paper PMC10307832.
# Tests used:
# Assay in all cases: relative viability (nuclei count vs DMSO), 5 days (fraction); higher = more cells survive
# [1] = compound: Cc1ccc2nc(NCCN)c3ncc(C)n3c2c1 + Nc1nc2[nH]cc(CCc3ccc(C(=O)N[C@@H](CCC(=O)O)C(=O)O)cc3)c2c(=O)[nH]1 [Pemetrexed] (partner 0.2 µM)
# Procedure, shortened: (§1)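 Lung cancer cell lines were pin-tool dosed in 1536-well plates on the day after seeding, with either a lone drug or a fixed anchor-drug dose plus five library-drug doses (not always all listed) in √10 steps. Nuclei were counted on 4× images after 5 days. Relative viability is the ratio of treated-well to vehicle-well nuclei counts, with each value a median of duplicate plates.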
# [2] = compound: Cc1ccc2nc(NCCN)c3ncc(C)n3c2c1 + O=C(c1cc(Cc2n[nH]c(=O)c3ccccc23)ccc1F)N1CCN(C(=O)C2CC2)CC1 [Olaparib] (partner 8 µM)
# Procedure, shortened: as §1
# Salubrinal + Pictilisib = compound: O=C(/C=C/c1ccccc1)NC(NC(=S)Nc1cccc2cccnc12)C(Cl)(Cl)Cl [Salubrinal] + CS(=O)(=O)N1CCN(Cc2cc3nc(-c4cccc5[nH]ncc45)nc(N4CCOCC4)c3s2)CC1 [Pictilisib] (partner 1 µM)
# Procedure, shortened: as §1
# Salubrinal + Vorinostat = compound: O=C(/C=C/c1ccccc1)NC(NC(=S)Nc1cccc2cccnc12)C(Cl)(Cl)Cl [Salubrinal] + O=C(CCCCCCC(=O)Nc1ccccc1)NO [Vorinostat] (partner 1 µM)
# Procedure, shortened: as §1
Cell Line,relative viability ([1]; first compound 0.04 µM),relative viability ([1]; first compound 0.1265 µM),relative viability ([1]; first compound 0.4 µM),relative viability ([1]; first compound 1.265 µM),relative viability ([1]; first compound 4 µM),relative viability ([2]; first compound 0.04 µM),relative viability ([2]; first compound 0.1265 µM),relative viability ([2]; first compound 0.4 µM),relative viability ([2]; first compound 1.265 µM),relative viability ([2]; first compound 4 µM),relative viability (Salubrinal + Pictilisib; first compound 0.08 µM),relative viability (Salubrinal + Pictilisib; first compound 0.253 µM),relative viability (Salubrinal + Pictilisib; first compound 0.8 µM),relative viability (Salubrinal + Pictilisib; first compound 8 µM),relative viability (Salubrinal + Vorinostat; first compound 0.08 µM),relative viability (Salubrinal + Vorinostat; first compound 0.253 µM),relative viability (Salubrinal + Vorinostat; first compound 0.8 µM),relative viability (Salubrinal + Vorinostat; first compound 2.53 µM),relative viability (Salubrinal + Vorinostat; first compound 8 µM),relative viability (Salubrinal + Pictilisib; first compound 2.53 µM)
NCI-H1651,0.578,0.639,0.647,0.591,0.502,0.178,0.181,0.179,0.18,0.175,0.822,0.486,0.667,0.423,0.597,0.478,0.669,0.527,0.546,–
NCI-H1666,0.965,0.817,0.84,0.736,0.795,0.719,0.755,0.751,0.76,0.749,0.398,0.491,0.485,0.45,0.99,0.886,0.99,1.16,1.11,0.404
NCI-H1734,0.438,0.395,0.413,0.48,0.496,0.666,0.617,0.658,0.321,0.553,0.452,0.508,0.503,0.438,0.834,0.801,0.916,0.77,0.745,0.517
NCI-H1755,0.446,0.408,0.411,0.437,0.456,0.859,0.878,0.835,0.903,0.791,0.564,0.417,0.535,0.401,0.815,0.831,0.973,0.911,0.745,0.431
NCI-H1793,0.951,0.85,0.846,0.714,0.766,1.06,0.812,0.836,0.651,0.795,0.309,0.319,0.306,0.285,0.942,0.57,0.995,0.814,0.719,0.316
NCI-H1915,0.511,0.502,0.463,0.519,0.442,0.286,0.251,0.242,0.279,0.255,0.855,0.942,0.999,0.953,0.516,–,0.614,0.521,0.471,0.946
NCI-H1944,0.687,0.586,0.582,0.555,0.587,0.388,0.387,0.403,0.397,0.388,0.349,0.328,0.362,0.307,0.69,0.54,0.662,0.504,0.645,0.348
NCI-H1975,0.309,0.29,0.3,0.313,0.324,0.791,0.81,0.809,0.704,0.682,0.259,0.269,0.338,0.278,0.742,0.616,0.703,0.696,0.676,0.269
NCI-H1993,0.595,0.623,0.528,0.57,0.613,1.12,0.962,0.86,0.624,1.06,0.817,0.827,0.877,0.861,0.939,0.592,0.805,–,0.867,0.773
NCI-H2009,1.02,0.985,0.966,0.951,0.926,0.666,0.661,0.666,0.71,0.549,0.976,0.857,1.02,0.749,0.815,0.785,0.696,0.693,0.657,0.756
NCI-H2023,0.254,0.241,0.235,0.503,0.171,0.503,0.56,0.541,0.458,0.254,0.22,0.278,0.289,0.208,0.9,0.7,0.746,0.737,0.613,0.277
NCI-H2085,0.87,0.934,0.855,0.892,1,0.813,0.752,0.836,0.803,0.791,0.464,0.475,0.512,0.489,0.832,0.785,0.837,0.771,0.878,0.542
NCI-H2087,0.725,0.637,0.599,0.711,0.575,0.671,0.522,0.609,0.691,0.589,0.917,0.892,1.02,0.963,0.981,0.368,0.67,0.676,0.762,0.853
NCI-H2126,0.851,0.699,0.659,0.708,0.59,0.924,0.903,0.943,0.932,0.888,0.423,0.479,0.515,0.481,0.87,0.72,0.888,0.763,0.719,0.483
NCI-H2170,0.258,0.305,0.26,0.257,0.262,0.627,0.702,0.56,0.549,0.637,0.29,0.315,0.335,0.271,0.861,0.742,0.923,0.956,0.638,0.294
NCI-H2228,0.316,0.292,0.357,0.361,0.419,0.721,0.692,0.614,0.65,0.633,0.472,0.356,0.31,0.321,0.99,–,0.652,0.659,0.642,0.543
